Reference: US12121530B2, “Composition and methods for treating articulating joint disorders with nucleoside reverse transcriptase inhibitors” (RHODE ISLAND HOSPITAL, priority 2018, dated 2024)

Tests used:
[1] = tested on: HIV patients; assay: summary data of NRTI on OA in HIV patients; format: in vivo, human; conditions: for expanded OA (ICD-9-CM 715, 716 or 719) / strict OA (ICD-9-CM 715): HIV patients; for strict OA (ICD-9-CM 715): older than 50, dosage dependent, both male and female
Source text: Medical provider diagnoses of ICD-9-CM 715 [osteoarthrosis and allied disorders] include the following definitions: 1) strict=ICD-9-CM 715; 2) expanded=ICD-9-CM 715, 716 [other and unspecified arthropathies], OR 719 [other and unspecified disorders of joint]); and 3) probable=strict OR expanded+respondent-reported prior diagnosis of OA or other arthritis excluding rheumatoid arthritis (RA).

[2] = tested on: Line-1; assay: siRNA against Line-1 in mouse primary chondrocytes, RT-qPCR; format: cell-based; conditions: for Line-1 expression: siRNA screening, versus scramble siRNA
Experimental: Cells were seeded onto desired size plates to reach 70-90% confluence and transfected with miR-365 mimic or miRNA mimic negative control or miR-365 inhibitor or inhibitor negative control (Dharmacon®, Lafayette, Colo., USA). Lipofectamine 3000 (Invitrogen®, Waltham, Mass., USA) was used as transfection reagents. Medium is changed 24 hrs after transfection. 48 hrs post transfection, cells were lysated in either QIAzol for RNA purification and real-time PCR analysis or ice-cold lysis buffer containing protease inhibitor and phosphatase inhibitor for western blot analysis. MiR-365 mimic, miRNA mimic negative control, miR-365 inhibitor and inhibitor negative control were typically used at a final concentration of 25 nM unless otherwise stated.
Both miRNA and mRNA were extracted using miRNeasy Mini Kit (Qiagen®, Germantown, Md., USA) and reversely transcribed using miScriptIIRT Kit (Qiagen®, Germantown, Md., USA) according to manufacturer's instruction. qPCR was performed using SYBR Green PCR master mix (Qiagen®, Germantown, Md., USA) on a Bio-Rad CFX96 real-time PCR detection system (Bio-Rad®, Hercules, Calif., USA). Amplification conditions are as follows: 95° C. for 10 min, 40 cycles of 95° C. for 10″, 55° C. for 30″, and 72° C. for 30″. 18S ribosomal or GAPDH RNA was used as an internal control gene to normalize the mRNAs level. The ubiquitously expressed snRNA U6 was used as an endogenous control for miRNAs level. Primers were synthesized by Integrated DNA Technologies (http://www.idtdna.com). The primers for miR-365 were purchased from Qiagen. Fold changes of mRNA and miRNAs were calculated by the 2^^(ΔΔCt) method and normalized to 18S/GAPDH or U6 snRNA, respectively.

[3] = mouse PC transfected with miR-365 mimic

Compound	expanded OA (ICD-9-CM 715, 716 or 719) [1]	strict OA (ICD-9-CM 715) [1]	Line-1 expression [2]	further results
O=c1nc[nH]c2c1ncn2[C@H]1CC[C@@H](CO)O1 [DDL, 2′,3′-dideoxyinosine]	inhibiting	inhibiting		toxicity ([1]; group of less than 40 years old): No toxicity
Cc1cn([C@H]2C=C[C@@H](CO)O2)c(=O)[nH]c1=O [D4T, 2′,3′-didehydro-2′,3′-dideoxythymidine]	inhibiting	inhibiting		extent of inhibition of strict OA and expanded OA ([1]; among NRTIs): highest extent of inhibition
Cc1cn([C@H]2C[C@H](N=[N+]=[N-])[C@@H](CO)O2)c(=O)[nH]c1=O [ZDV, Zidovudine]	partially inhibiting	inhibiting		
siLine-1D: siRNA against Line-1, AAGGTCAAATCTAAGTGGATC (SEQ ID NO: 96) (AAGGTCAAATCTAAGTGGATC; listed as DNA, chemistry not given here)			significantly suppressed	miR-365-elicited gene expression changes (L1, Adamts5, Mmp3, Ihh, Col2a1, Acan) ([2]; co-transfected with miR-365 (FIG. 1D-1I)): abolished; miR-365 led induction of Ihh [2, 3]: successfully rescued; miR-365 led induction of Line-1 [2, 3]: successfully rescued
siLine-1C: siRNA against Line-1, AAGCCACTATTACTCTGATAC (SEQ ID NO: 95) (AAGCCACTATTACTCTGATAC; listed as DNA, chemistry not given here)			significantly suppressed	
siLine-1E: siRNA against Line-1, AAGTTTCTGCAAGGCAAAAGA (SEQ ID NO: 97) (AAGTTTCTGCAAGGCAAAAGA; listed as DNA, chemistry not given here)			significantly suppressed	
Nc1nc(NC2CC2)c2ncn([C@H]3C=C[C@@H](CO)C3)c2n1 [ABC, abacavir]		inhibiting		
